Measured values as given in article PMC7248877, “Synthesis and Spectral Identification of Three Schiff Bases with a 2-(Piperazin-1-yl)-N-(thiophen-2-yl methylene)ethanamine Moiety Acting as Novel Pancreatic Lipase Inhibitors: Thermal, DFT, Antioxidant, Antibacterial, and Molecular Docking Investigations” (Molecules, 2020).

Molecular target: T1, porcine pancreatic lipase (Sus scrofa, UniProt P00591)
T1 construct: gene PNLIP
T1 sequence (P00591 1-450): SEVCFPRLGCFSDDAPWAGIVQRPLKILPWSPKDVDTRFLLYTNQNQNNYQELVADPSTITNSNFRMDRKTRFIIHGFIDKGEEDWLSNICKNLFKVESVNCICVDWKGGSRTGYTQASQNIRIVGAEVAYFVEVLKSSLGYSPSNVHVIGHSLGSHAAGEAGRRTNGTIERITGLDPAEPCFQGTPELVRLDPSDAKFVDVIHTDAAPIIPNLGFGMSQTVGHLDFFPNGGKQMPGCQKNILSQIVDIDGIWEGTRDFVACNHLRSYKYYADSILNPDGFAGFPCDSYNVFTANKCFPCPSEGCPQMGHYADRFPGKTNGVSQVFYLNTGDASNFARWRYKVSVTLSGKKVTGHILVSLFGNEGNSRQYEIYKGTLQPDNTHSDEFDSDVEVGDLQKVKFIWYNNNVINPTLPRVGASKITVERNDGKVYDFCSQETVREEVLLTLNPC
Assay: p-nitrophenyl butyrate hydrolysis assay, absorbance at […] nm
Type: biochemical

Compared with `CC(=NCCN1CCNCC1)c1ccc(Cl)s1` [L1, N-(1-(5-Chlorothiophen-2-yl)ethylidene)-2-(piperazin-1-yl)ethanamine], `Brc1ccc(C=NCCN2CCNCC2)s1` [L3, N-((5-Bromothiophen-2-yl)methylene)-2-(piperazin-1-yl)ethanamine] is 2.2-fold lower in IC50: 1160 µM for the first, 524 µM for the second. The second is the more potent here.

`C(=N\CCN1CCNCC1)/c1cccs1` [L2, 2-(Piperazin-1-yl)-N-(thiophen-2-ylmethylene)ethanamine] gave an IC50 of 2240 µM.
